# “Also recorded” adds a separate entry of the source.
# Key:
# [1] = Human PK in subjects taking strong CYP inducers; assay type: in vivo; details: subjects taking strong CYP inducers (carbamazepine and phenytoin)
# [2] = Toxicology studies in animals on prenatal and neonatal development; assay type: in vivo
# Description: Ganaxolone has been administered to infants with severe forms of epilepsy as early as 4 months of age. In clinical trials involving administration of ganaxolone over several weeks, the study drug has been tapered off over a 1 to 2-week period.
# [3] = Phase 1 IV ganaxolone pharmacokinetics in healthy subjects; assay type: in vivo, human
# Method: (§1) A Phase I clinical trial evaluating IV ganaxolone formulation was performed. The clinical trial was designed to investigate the safety, pharmacokinetics, and pharmacodynamics of an intravenous bolus of ganaxolone and continuous intravenous infusion of ganaxolone in 30 healthy subjects. Subjects were administered either an intravenous bolus of ganaxolone in an amount of 10-20 mg for a period of 2 minutes to 1 hour, or an intravenous bolus of ganaxolone in an amount of 6 mg for a period of 5 minutes with a continuous intravenous infusion in an amount of 20 mg/hr for a period of 4 hours.
# (§2) There was little or no delay between the appearance of drug in plasma and a change in the BIS score.
# [4] = tested on: healthy subjects; assay: Phase 1 IV ganaxolone pharmacodynamics (BIS, EEG) in healthy subjects; assay type: in vivo, human
# Method: as §1, §2
# [5] = tested on: subjects with SE; assay: Phase 2 Study 1042-SE-2001 open-label group, seizure control by EEG; assay type: in vivo, human
# Description: Example 2 is an ongoing, double-blind, randomized, placebo-controlled Phase 2 study designed to evaluate the safety, tolerability, and efficacy of adjunctive IV GNX in subjects with SE who have failed initial treatment with benzodiazepines and at least one AED. The study consists of a small open-label group to optimize the infusion parameters and provide a preliminary assessment of safety, efficacy, and tolerability of GNX administration, followed by a double-blind group who will be randomized to receive GNX or placebo in a 1:1 ratio. In both the open-label and double-blind groups, the study drug treatment is adjunctive therapy to standard of care, and subjects will receive a study drug bolus dose with a concurrent continuous infusion treatment with the goal of administering a therapeutic dose as quickly as possible to stop the seizures and prevent permanent neurological damage. Specifically, study drug will be added to the standard of care at the time that the first 2nd-line IV AED has failed and the second 2nd-line IV AED is medically indicated during the treatment of SE. Study drug must be administered with the second-line IV AED as close to the dose initiation of the second 2nd-line IV AED as possible, but before the initiation of the third-line IV anesthetic for burst suppression.
# Ganaxolone for this study is a proprietary IV formulation solubilized by Captisol® (betadex sulfobutyl ether sodium). The maximum level of Captisol® will not exceed 50 g/per day. Ganaxolone for IV administration will be provided to the site as individual glass vials containing 3 mg/mL of ganaxolone for the open-label group and 5 mg/mL of ganaxolone for the double-blind group. Placebo for double-blind group IV administration will be provided to the site as blinded matching vials containing 0.9% sodium chloride solution.
# Total adjunctive GNX therapy infusion treatment is planned to be 3 or 5 days (including an 18-hour taper). All subjects will have a 3-minute bolus dose with a continuous infusion at the rate from about 10 mg/hour to about 85 mg/hour or from about 18 mg/hr to 80 mg/hr, and an 18-hour taper. Once study drug administration is started it will be delivered for a full 2 or 4 days (48 or 96 hours) prior to tapering. At the end of second day administration, the decision to administer the study drug for an additional 2 days (i.e., for a total of 4 days) will be made. If in the investigator's medical judgment the subject will continue benefitting from study drug administration, ganaxolone will be administered to the additional 2 days.
# (§3) As of 22 Mar. 2019, 5 subjects were enrolled into the Study 1042-SE-2001 open-label group under the original protocol that limits daily Captisol exposure at 35 g/day. […] The initial EEG pattern post-infusion initiation was described by study physicians as a “light” burst suppression that was maintained for several hours in all subjects. […] It was observed that when GNX exposure was lowered (20 mg/hr for 2 hours and ending with 10 mg/hr for the remaining 18 hours on Day 1) in order not to exceed this limit, seizure control could not be maintained and seizure activity (but not SE) re-occurred as evidenced by EEG changes. […] Seizure activity relapsed when plasma concentrations of GNX decreased <500 ng/mL in 4 out of 5 subjects.
# [6] = Phase 2 Study 1042-SE-2001 open-label group, GNX plasma concentration and PK modeling; assay type: in vivo, human
# Method: These infusion dosing parameters are expected to result in daily doses of ganaxolone of about ≤714 mg/day and Captisol of about ≤50 grams/day. Based on PK modeling, it is predicted that maximum concentrations of ganaxolone should remain within 1,000 ng/mL during infusion, but some variability is expected due to, for example, differences in subjects' weight.
# as §3
# [7] = cited from earlier work
# [8] = tested on: CYP3A4/5; assay: Metabolism by CYP enzymes; details: human
# [9] = PK modeling data from 5 subjects
smiles,measurement,setting,value
"CC(=O)[C@H]1CC[C@H]2[C@@H]3CC[C@H]4C[C@](C)(O)CC[C@]4(C)[C@H]3CC[C@]12C [Ganaxolone, 3α-hydroxy-3β-methyl-5α-pregnan-20-one]",lowering in overall ganaxolone levels and exposure,[1],~45%
same,toxicities in prenatal and neonatal development studies,[2],have not demonstrated toxicities
same,ganaxolone levels in plasma,"[3]; all 30 healthy subjects, IV bolus or bolus plus infusion",quantifiable
same,dose relation of plasma concentrations,"[3]; healthy subjects, IV",generally proportional to the administered dose
same,EEG and BIS changes,"[4]; Phase 1, FIG. 1",consistent with sedative/anesthetic effects
same,bispectral index (BIS) score versus plasma concentration,"[4]; healthy subjects, IV",higher plasma concentration was associated with lower BIS scores
same,duration seizure protection was maintained,"[5]; 1 subject, amended protocol",48 h
same,time to RSE cessation after starting IV GNX infusion,"[5]; 1 subject, amended protocol, Captisol 50 g/day, NCSE due to tumor",≤ 3 min
same,seizure relapse on weaning off GNX,"[5]; 1 subject, amended protocol, listed as GNX",no seizure relapse; also recorded: without seizure relapse
same,EEG response after start of GNX,"[5]; Subject 004-101, 30 mg bolus, 85 mg/hr",Almost immediately the EEG showed seizure suppression
same,time of seizure relapse post infusion start,"[5]; Subject 004-101, at 20 mg/hr",approximately 5 hours
same,time at which additional intervention was required post-dose initiation,[5]; Subject 004-102,approximately 42.5 hours
same,seizure activity on EEG,"[5]; Subject 004-102, 60 minutes and 2 hours post-dose initiation",no seizure activity
same,time of return of concerning EEG pattern post-dose initiation,"[5]; Subject 004-102, at 20 mg/hr",5 to 6 h
same,time to SE abort after bolus administration,[5]; Subject 006-101,≤ 1 min
same,seizure activity on EEG,"[5]; Subject 006-101, 60 minutes and 2 hours post-dose initiation",no seizure activity
same,time of seizure relapse post infusion start,"[5]; Subject 006-101, at 20 mg/hr",approximately 6 hours
same,effect of bolus on SE,[5]; Subject 006-102,SE aborted upon administration of the bolus
same,seizure activity on EEG,"[5]; Subject 006-102, 60 minutes, 2 hours and 4 hours post-dose initiation",no seizure activity
same,time of seizure relapse post infusion start,"[5]; Subject 006-102, at 20 mg/hr",approximately 6 hours
same,seizure return during treatment,"[5]; Subject 015-101, focal convulsive SE",Seizures did not return during the treatment period
same,effect of initial bolus plus continuous infusion on seizures/SE (EEG),"[5]; all 5 subjects, 30 mg bolus, 85 mg/hr 2 h then 40 mg/hr 2 h, listed as GNX",immediate cessation of seizures; also recorded: immediate cessation of SE
same,subjects with seizure activity relapse when plasma GNX decreased <500 ng/mL,"[5]; original protocol, Captisol 35 g/day",4 out of 5
same,GNX exposure associated with seizure relapse,[6]; [9],< 500 ng/mL
same,GNX exposure level associated with rapid and complete SE suppression,[6]; [9],approximately 1000 ng/mL
same,GNX plasma concentration at the time of seizure relapse,[6]; Subject 004-101,< 500 ng/mL
same,GNX plasma concentration at the time of seizure relapse,[6]; Subject 006-101,< 500 ng/mL
same,GNX plasma concentration at the time of seizure relapse,[6]; Subject 006-102,< 500 ng/mL
same,half-life,[7]; human plasma following oral administration,approximately 20 hours
same,Tmax,[7]; human,short
same,metabolizing enzymes,[8],metabolized by CYP3A4/5

# Reference: patent US12246026B2, “Ganaxolone for use in treatment of status epilepticus” (Marinus Pharmaceuticals, Inc., priority 2019, dated 2025)
